Assay results reported in patent US9783547B2, “Water soluble 4-azapodophyllotoxin analogs” (CENTRE NATIONAL DE LA RECHERCHE SCIENTIFIQUE (CNRS), priority 2014, dated 2017).
Structures can show the parent of a compound that is named as a salt.

Assays:
[1] = test system: B16 melanoma cells; test: Cytotoxicity assay for murine cancer cells (MTT); type: cell-based; details: Mus musculus, 48 h exposure
Experimental: Murine B16 melanoma cells, Lewis lung carcinoma cells and colon 26 carcinoma cells were grown in DMEM medium containing 2 mM L-glutamine, 10% foetal bovine serum, 100 U/mL penicillin and 100 μg/mL streptomycin (37° C., 5% CO2). […] Exponentially growing cells were plated onto 96-well plates at 5000 cells per well in 100 μL of culture medium. 24 h after plating, 100 μl of medium containing the tested compound at final concentrations ranging from 0.01 to 100 μM were added to the wells (in triplicate) containing the cells, and incubated for 48 h at 37° C. and 5% CO2. After the 48 h exposure period to the test compounds, cell viability was assayed using the MTT (methylthiazoletetrazolium) test (Scudiero et al., Cancer Res. 1988, 48, 4827-4833) and absorbance was read at 562 nm in a microplate reader (BioKinetics Reader, EL340). Appropriate controls with DMEM only and MTT were run to subtract background absorbance.

[2] = test system: tubulin; test: Tubulin polymerization inhibition assay (DAPI fluorescence); type: biochemical; details: for IC50: tubulin 1 mg/ml, DAPI, read-out: IPT (inhibition of tubulin polymerization) IC50; for Inhibition of tubulin polymerization at 30 μM: IC50 ND
Source text: Fluorescence was then read at the excitation wavelength of 360 nm and emission of 450 nm.

[3] = test system: EAhy 926 endothelial cell line; test: Endothelial cell morphology evaluation (rounding up); type: cell-based; details: Homo sapiens, EA.hy 926; 2 h incubation; rounding up of more than 15% of cells; read-out: Cmarr EA.hy 926: lowest concentration at which cell rounding up was observed
Source text: To assess the effects of the compounds on the morphology of endothelial cells, the EAhy 926 endothelial cell line was used, which is derived from the fusion of human umbilical vein endothelial cells (HUVEC) with the permanent human cell line A549 (Edgell et al, Proc. Natl. Acad. Sci. U.S.A., 1983, vol 80, issue 12, 3734-3737). The EAhy 926 cell line is considered as a good representative of native HUVEC because it expresses most of the biochemical markers of parental HUVEC (Bouis et al., Angiogenesis., 2001, 4, 91-102). EAhy 926 cells were grown in DMEM containing 2 mM L-glutamine, 10% foetal bovine serum, 100 U/mL penicillin and 100 μg/mL streptomycin in a humidified atmosphere (37° C., 5% CO2). Exponentially growing EAhy 926 cells were plated onto 96 well plates at 5000 cells/100 μL/well. Twenty-four hours after plating, the medium was aspirated, and 100 μL of medium containing the test compound was added to the well containing the cells (in triplicate) and incubated for 2 h (37° C., 5% CO2). The highest concentration used was 100 μM followed by serial two-fold dilutions down to low nanomolar concentrations, if needed for the most morphologically active compounds. After the 2 h-incubation period, digital photographs were taken of representative centre areas of each well at a magnification of 100× and 200×. The results are presented as the minimum concentration that could elicit the rounding up of more than 15% of cells in a field in order to exclude normal mitotic cells which is less that 15% in control 1% DMSO treated cells. Triplicate concentrations on the same plate were routinely carried out. CA4 was included in the experiments as a positive internal standard.
Compounds of the invention were first tested on EAhy 926 endothelial cells, which are transformed HUVEC (human umbilical vein endothelial cells). These cells undergo a rounding up upon a short 2 hour exposure to vascular disrupting agents, e.g. combretastatin A4.

| melting point | IC50 [2] | Compound | IC50 [1] | minimal effective concentration [3] | Inhibition of tubulin polymerization at 30 μM [2] |
| --- | --- | --- | --- | --- | --- |
| 260 °C | – | O=C1CCCc2nc3cc4c(cc3c(Nc3ccc5c(c3)OCO5)c21)OCO4 (as salt: hydrochloride) [SGR 355•HCl, 6,7-(Methylenedioxy)-9-(3,4-methylenedioxyphenyl-amino)-3,4-dihydroacridin-1(2H)-one, hydrochloride] | – | – | – |
| 258 °C | – | COc1cccc(Nc2c3c(nc4cc5c(cc24)OCO5)CCCC3=O)c1 (as salt: hydrochloride) [SGR 356•HCl, 6,7-(Methylenedioxy)-9-(3-methoxyphenylamino)-3,4-dihydroacridin-1(2H)-one, hydrochloride] | – | – | – |
| 267 °C | – | COc1cc(Nc2c3c(nc4cc5c(cc24)OCO5)CCC3=O)cc(OC)c1OC (as salt: hydrochloride) [SGR 358•HCl, 6,7-(Methylenedioxy)-9-(3,4,5-trimethoxyphenylamino)-2,3-dihydro-1H-cyclopenta[b]quinolin-1-one, hydrochloride] | – | – | – |
| 256 °C | – | COc1ccc(Nc2c3c(nc4cc5c(cc24)OCO5)CCC3=O)cc1OC (as salt: hydrochloride) [SGR 359•HCl, 6,7-(Methylenedioxy)-9-(3,4-dimethoxyphenylamino)-2,3-dihydro-1H-cyclopenta[b]quinolin-1-one, hydrochloride] | – | – | – |
| 266 °C | – | COc1cc(Nc2c3c(nc4cc5c(cc24)OCCO5)CCCC3=O)cc(OC)c1OC (as salt: hydrochloride) [SGR 360•HCl, 6,7-(Ethylenedioxy)-9-(3,4,5-trimethoxyphenylamino)-3,4-dihydroacridin-1(2H)-one, hydrochloride] | – | – | – |
| 254 to 255 °C | – | COc1cc(Nc2c3c(nc4cc5c(cc24)OCCO5)CCCC3=O)cc(OC)c1 (as salt: hydrochloride) [SGR 361•HCl, 6,7-(Ethylenedioxy)-9-(3,5-dimethoxyphenylamino)-3,4-dihydroacridin-1(2H)-one, hydrochloride] | – | – | – |
| 256 °C | – | COc1cc(Nc2c3c(nc4cc5c(cc24)OCO5)CCCC3=O)cc(OC)c1 (as salt: hydrochloride) [SGR 363•HCl, 6,7-(Methylenedioxy)-9-(3,5-dimethoxyphenylamino)-3,4-dihydroacridin-1(2H)-one, hydrochloride] | – | – | – |
| 216 °C | – | COc1cc(Nc2c3c(nc4cc(C)c(C)cc24)CCCC3=O)cc(OC)c1OC (as salt: hydrochloride) [SGR 364•HCl, 6,7-(Dimethyl)-9-(3,4,5-trimethoxyphenylamino)-3,4-dihydroacridin-1(2H)-one, hydrochloride] | – | – | – |
| – | 1.04 µM | COc1cc(NC2=C3C(=O)OCC3N(C)c3cc4c(cc32)OCO4)cc(OC)c1OC (stereo not drawn) [SGR 230, reference compound] | 38.4 µM | 0.12 µM | – |
| – | 0.42 µM | COc1cc(Nc2c3c(nc4cc5c(cc24)OCO5)COC3=O)cc(OC)c1OC [SGR 231, reference compound] | 0.4 µM | 1.95 µM | – |
| – | – | O=C1CCCc2nc3cc4c(cc3cc21)OCO4 [SGR 304] | > 100 µM | > 100 µM | ND (33% à 30 μM) |
| – | – | O=C1CCCc2c1cc1cc3c(cc1[n+]2[O-])OCO3 [SGR 305] | > 100 µM | > 100 µM | ND (22% à 30 μM) |
| – | – | O=C1CCCc2nc3cc4c(cc3c(Cl)c21)OCO4 [SGR 306] | > 100 µM | 12.5 µM | ND (3% à 30 μM) |
| – | – | COc1cc(Nc2c3c(nc4cc5c(cc24)OCO5)CCCC3O)cc(OC)c1OC (stereo not drawn) [SGR 308] | 29.5 µM | 25 µM | ND (31% à 30 μM) |
| – | 18.2 µM | COc1cc(Nc2c3c(nc4cc5c(cc24)OCO5)CCC=C3)cc(OC)c1OC [SGR 309] | 11 µM | 3.13 µM | – |
| – | – | O=C1CCCc2nc3cc4c(cc3c(Nc3ccc5c(c3)OCO5)c21)OCO4 [SGR 355•HCl, 6,7-(Methylenedioxy)-9-(3,4-methylenedioxyphenyl-amino)-3,4-dihydroacridin-1(2H)-one, hydrochloride] | 17.4 µM | 100 µM | – |
| – | – | COc1cccc(Nc2c3c(nc4cc5c(cc24)OCO5)CCCC3=O)c1 [SGR 356•HCl, 6,7-(Methylenedioxy)-9-(3-methoxyphenylamino)-3,4-dihydroacridin-1(2H)-one, hydrochloride] | > 100 µM | 50 µM | – |
| – | – | COc1cc(CNc2c3c(nc4cc5c(cc24)OCO5)CCCC3=O)cc(OC)c1OC.Cl [SGR 357•HCl] | 8.9 µM | 25 µM | ND (18% à 30 μM) |
| – | – | COc1cc(Nc2c3c(nc4cc5c(cc24)OCO5)CCC3=O)cc(OC)c1OC [SGR 358•HCl, 6,7-(Methylenedioxy)-9-(3,4,5-trimethoxyphenylamino)-2,3-dihydro-1H-cyclopenta[b]quinolin-1-one, hydrochloride] | 1.01 µM | 0.25 µM | – |
| – | – | COc1ccc(Nc2c3c(nc4cc5c(cc24)OCO5)CCC3=O)cc1OC [SGR 359•HCl, 6,7-(Methylenedioxy)-9-(3,4-dimethoxyphenylamino)-2,3-dihydro-1H-cyclopenta[b]quinolin-1-one, hydrochloride] | 17.4 µM | 25 µM | – |
| – | – | COc1cc(Nc2c3c(nc4cc5c(cc24)OCCO5)CCCC3=O)cc(OC)c1OC [SGR 360•HCl, 6,7-(Ethylenedioxy)-9-(3,4,5-trimethoxyphenylamino)-3,4-dihydroacridin-1(2H)-one, hydrochloride] | 8.1 µM | 0.06 µM | – |
| – | – | COc1cc(Nc2c3c(nc4cc5c(cc24)OCO5)CCCC3=O)cc(OC)c1 [SGR 363•HCl, 6,7-(Methylenedioxy)-9-(3,5-dimethoxyphenylamino)-3,4-dihydroacridin-1(2H)-one, hydrochloride] | 1.4 µM | 0.06 µM | – |
| – | – | COc1cc(Nc2c3c(nc4cc(C)c(C)cc24)CCCC3=O)cc(OC)c1OC [SGR 364•HCl, 6,7-(Dimethyl)-9-(3,4,5-trimethoxyphenylamino)-3,4-dihydroacridin-1(2H)-one, hydrochloride] | 12.6 µM | 6.25 µM | – |

| Compound | melting point | IC50 [2] | IC50 [1] | minimal effective concentration [3] | Inhibition of tubulin polymerization at 30 μM [2] |
| --- | --- | --- | --- | --- | --- |
| COc1ccc(/C=C\c2cc(OC)c(OC)c(OC)c2)cc1O [combretastatin A4, reference compound] | – | […] | – | – | – |
| COc1cc([C@@H]2c3cc4c(cc3[C@H](O)[C@H]3COC(=O)[C@H]23)OCO4)cc(OC)c1OC [podophyllotoxin] | – | […] | – | – | – |
